# In patent US20250109132A1, “COMPOUNDS AND METHODS FOR TREATING FRIEDREICH'S ATAXIA” (Design Therapeutics, Inc., priority 2022, published 2025):
# Test system: human FXN
# Assay: EC50 Assay: FXN mRNA expression by qRT-PCR in GM15850 cells
# Type: cell-based
# Settings: GM15850 cell suspension, 48 hrs incubation, hFXN expression normalized to hGAPDH, 5-point 3-fold dose response, read-out: EC50 WT (nM, 48 hr)
# Description: Cell culture: Cells were cultured in RPMI1640 medium+15% FBS. Cells were maintained at a density between […]. Cells were centrifuged, resuspended in fresh medium, counted and plated at 150,000 cells per well in 100 μL in a non-coated, flat bottom tissue culture plate.
# Compound treatment: 10 mM stock solution of FA GeneTAC was diluted 1:10 in DMSO followed by a 1:100 dilution in growth medium. Working solution was then further diluted to 1OX desired final concentration of 150 nM. Compound was then diluted at a 1:3 ratio into growth medium containing 0.01% DMSO. 5-point, 3-fold dose response curve was generated. 11 μL of 10× compound was added to wells containing 100 μL cell suspension of GM15850. 11 μL growth medium containing 0.01% DMSO was added to all wells not treated with FA GeneTAC. Cells were allowed to incubate for 48 hrs prior to cell lysis using guanidine isothiocyanate solution.
# RNA isolation: Total RNA was isolated and purified in 384-well column filter plates using chaotropic salt.
# qRT-PCR: qRT-PCR reactions were assembled using AgPath-ID reagents (Thermo Fisher) using 6 μL mastermix and 4 μL RNA. qRT-PCR TaqMan primer probe sets against human FXN (Assay ID Hs01075496 ml) and human GAPDH (Assay ID Hs00266705_g1) were used to measure the intended targets. qRT-PCR was run on the ThermoFisher QuantStudio 6 PRO instrument using the manufacturer's recommended cycling conditions.
# Data analysis: qPCR data was analyzed using Thermo Fisher Design and Analysis software. Data was exported to Excel and hFXN expression was normalized to hGAPDH expression
# A<100 nM; B is 100 nM to 500 nM; C>500 nM.
row,SMILES,EC50 [nM]
1,COC(C)(C)c1ccc(Oc2c(C)cc(F)cc2C)c(-c2cn(C)c(=O)c3[nH]c(C(=O)Nc4ccc(OCCOCCOCCOCCOCCOCCOCCOCCOCCNC(=O)CCNC(=O)c5nc(NC(=O)CCNC(=O)c6cc(NC(=O)c7nc(NC(=O)CCNC(=O)c8cc(NC(=O)c9nccn9C)cn8C)cn7C)cn6C)cn5C)cc4)cc23)c1 [Compound 1],< 100
2,Cc1cc(F)cc(C)c1Oc1ccc(S(C)(=O)=O)cc1-c1cn(C)c(=O)c2[nH]c(C(=O)Nc3ccc(OCCOCCOCCOCCOCCOCCOCCOCCOCCNC(=O)CCNC(=O)c4nc(NC(=O)CCNC(=O)c5cc(NC(=O)c6nc(NC(=O)CCNC(=O)c7cc(NC(=O)c8nccn8C)cn7C)cn6C)cn5C)cn4C)cc3)cc12 [Compound 2],< 100
3,CCS(=O)(=O)c1ccc(Oc2c(C)cc(F)cc2C)c(-c2cn(C)c(=O)c3[nH]c(C(=O)Nc4ccc(OCCOCCOCCOCCOCCOCCOCCOCCOCCNC(=O)CCNC(=O)c5nc(NC(=O)CCNC(=O)c6cc(NC(=O)c7nc(NC(=O)CCNC(=O)c8cc(NC(=O)c9nccn9C)cn8C)cn7C)cn6C)cn5C)cc4)cc23)c1 [Compound 3],< 100
4,COCCOCCOCCOCCOCCOCCOc1cc(NC(=O)c2cc3c(-c4cc(C(C)(C)O)ccc4Oc4c(C)cc(F)cc4C)cn(C)c(=O)c3[nH]2)ccc1OCCOCCOCCOCCOCCOCCOCCOCCOCCNC(=O)CCNC(=O)c1nc(NC(=O)CCNC(=O)c2cc(NC(=O)c3nc(NC(=O)CCNC(=O)c4cc(NC(=O)c5nccn5C)cn4C)cn3C)cn2C)cn1C [Compound 4],< 100
5,Cc1cc(F)cc(C)c1Oc1ccc(C(C)(C)O)cc1-c1cn(C)c(=O)c2[nH]c(C(=O)NCc3cn(CCOCCOCCOCCOCCOCCOCCOCCOCCNC(=O)CCNC(=O)c4nc(NC(=O)CCNC(=O)c5cc(NC(=O)c6nc(NC(=O)CCNC(=O)c7cc(NC(=O)c8nccn8C)cn7C)cn6C)cn5C)cn4C)nn3)cc12 [Compound 5],< 100
6,Cc1cc(F)cc(C)c1Oc1ccc(C(C)(C)O)cc1-c1cn(C)c(=O)c2[nH]c(C(=O)NCc3ccc(OCCOCCOCCOCCOCCOCCOCCOCCOCCNC(=O)CCNC(=O)c4nc(NC(=O)CCNC(=O)c5cc(NC(=O)c6nc(NC(=O)CCNC(=O)c7cc(NC(=O)c8nccn8C)cn7C)cn6C)cn5C)cn4C)cc3)cc12 [Compound 6],< 100
7,Cc1cc(F)cc(C)c1Oc1ccc(C(C)(C)O)cc1-c1cn(C)c(=O)c2[nH]c(C(=O)Nc3ccc(OCCOCCOCCOCCOCCOCCOCCOCCOCCNC(=O)c4nc(NC(=O)CCNC(=O)c5cc(NC(=O)c6nc(NC(=O)CCNC(=O)c7cc(NC(=O)c8nccn8C)cn7C)cn6C)cn5C)cn4C)cc3)cc12 [Compound 7],< 100
8,Cc1cc(F)cc(C)c1Oc1ccc(C(C)(C)O)cc1-c1cn(C)c(=O)c2[nH]c(C(=O)Nc3ccc(OCCOCCOCCOCCOCCOCCOCCOCCOCCNC(=O)c4nc(NC(=O)CCNC(=O)c5cc(NC(=O)c6nc(NC(=O)CCNC(=O)c7cc(NC(=O)c8nccn8C)c[nH]7)cn6C)c[nH]5)cn4C)cc3)cc12 [Compound 9],< 100
9,Cc1cc(F)cc(C)c1Oc1ccc(C(C)(C)O)cc1-c1cn(C)c(=O)c2[nH]c(C(=O)Nc3ccc(OCCOCCOCCOCCOCCOCCOCCOCCOCCNC(=O)CCNC(=O)CCNC(=O)c4nc(NC(=O)CCNC(=O)c5cc(NC(=O)c6nc(NC(=O)CCNC(=O)c7cc(NC(=O)c8nccn8C)cn7C)cn6C)cn5C)cn4C)cc3)cc12 [Compound 10],< 100
10,Cc1cc(F)cc(C)c1Oc1ccc(C(C)(C)O)cc1-c1cn(C)c(=O)c2[nH]c(C(=O)Nc3ccc(OCCOCCOCCOCCOCCOCCNC(=O)CCNC(=O)c4nc(NC(=O)CCNC(=O)c5cc(NC(=O)c6nc(NC(=O)CCNC(=O)c7cc(NC(=O)c8nccn8C)cn7C)cn6C)cn5C)cn4C)cc3)cc12 [Compound 11],< 100
11,Cc1cc(F)cc(C)c1Oc1ccc(C(C)(C)O)cc1-c1cn(C)c(=O)c2[nH]c(C(=O)Nc3ccc(OCCOCCOCCOCCOCCOCCOCCOCCOCCNC(=O)CCNC(=O)c4nc(NC(=O)CCNC(=O)c5cc(NC(=O)c6nc(NC(=O)CCNC(=O)c7cc(NC(=O)c8nccn8C)cn7C)cn6C)cn5C)cn4C)c(O)c3)cc12 [Compound 12],< 100
12,Cc1cc(F)cc(C)c1Oc1ccc(C(C)(C)O)cc1-c1cn(C)c(=O)c2[nH]c(C(=O)Nc3ccc(OCCOCCOCCOCCOCCOCCOCCOCCOCCNC(=O)CCNC(=O)c4nc(NC(=O)CCNC(=O)c5cc(NC(=O)c6nc(NC(=O)CCNC(=O)c7cc(NC(=O)c8nccn8C)cn7C)cn6C)cn5C)cn4C)cc3)cc12 [Compound 15],< 100
13,CCNC(=O)c1cc2c(-c3cc(C(C)(C)O)ccc3Oc3c(C)cc(OCCOCCOCCOCCOCCOCCOCCOCCOCCNC(=O)CCNC(=O)c4nc(NC(=O)CCNC(=O)c5cc(NC(=O)c6nc(NC(=O)CCNC(=O)c7cc(NC(=O)c8nccn8C)cn7C)cn6C)cn5C)cn4C)cc3C)cn(C)c(=O)c2[nH]1 [Compound 17],< 100
